Measured values from PMC12154458, “High-Throughput Screens of Repurposing Hub and DOS Chemical Libraries Reveal Compounds with Novel and Potent Inhibitory Activity Against the Essential Non-Neuronal Acetylcholinesterase of Schistosoma mansoni (SmTAChE)” (International Journal of Molecular Sciences, 2025).
Where two headings read alike, the source gives them in different places.

Columns and labels:
rSmTAChE [1] = target: T1, rSmTAChE (Schistosoma mansoni, UniProt A0A3Q0KMM5); assay: biochemical
rSmTAChE [2] = target: T1, rSmTAChE; assay type: biochemical
[3] = target: recombinant human acetylcholinesterase, rHsAChE (Homo sapiens, UniProt P22303); assay: biochemical
[4] = read-out: qAC50 (IC50), rSmTAChE
[5] = read-out: qAC50 (IC50), rHsAChE
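Wherever Inhibition (%) (Average) is given: mostly 20 µM final but a few compounds at 5 or 10 µM.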
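Wherever Inhibition (%) Replicate A is given: mostly 20 µM final but a few compounds at 5 or 10 µM.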
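Wherever Inhibition (%) Replicate B is given: mostly 20 µM final but a few compounds at 5 or 10 µM.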

recombinant human acetylcholinesterase, rHsAChE, sequence (P22303 32-614): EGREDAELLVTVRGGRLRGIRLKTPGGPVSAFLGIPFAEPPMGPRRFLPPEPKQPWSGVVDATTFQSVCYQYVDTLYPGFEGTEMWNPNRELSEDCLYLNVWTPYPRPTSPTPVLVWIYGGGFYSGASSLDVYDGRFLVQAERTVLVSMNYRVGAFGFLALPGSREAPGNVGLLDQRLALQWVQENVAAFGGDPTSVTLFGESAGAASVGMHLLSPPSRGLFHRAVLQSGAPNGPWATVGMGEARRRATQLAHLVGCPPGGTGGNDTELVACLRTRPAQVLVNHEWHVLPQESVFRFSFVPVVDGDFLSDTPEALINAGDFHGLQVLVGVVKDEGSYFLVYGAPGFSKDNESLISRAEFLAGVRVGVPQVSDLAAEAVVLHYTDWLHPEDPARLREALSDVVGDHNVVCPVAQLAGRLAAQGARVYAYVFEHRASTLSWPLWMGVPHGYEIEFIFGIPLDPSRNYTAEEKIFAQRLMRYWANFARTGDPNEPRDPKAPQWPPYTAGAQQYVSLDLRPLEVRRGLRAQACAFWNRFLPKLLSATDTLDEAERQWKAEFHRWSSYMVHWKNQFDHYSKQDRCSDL
T1 sequence (A0A3Q0KMM5 27-661 limits assumed): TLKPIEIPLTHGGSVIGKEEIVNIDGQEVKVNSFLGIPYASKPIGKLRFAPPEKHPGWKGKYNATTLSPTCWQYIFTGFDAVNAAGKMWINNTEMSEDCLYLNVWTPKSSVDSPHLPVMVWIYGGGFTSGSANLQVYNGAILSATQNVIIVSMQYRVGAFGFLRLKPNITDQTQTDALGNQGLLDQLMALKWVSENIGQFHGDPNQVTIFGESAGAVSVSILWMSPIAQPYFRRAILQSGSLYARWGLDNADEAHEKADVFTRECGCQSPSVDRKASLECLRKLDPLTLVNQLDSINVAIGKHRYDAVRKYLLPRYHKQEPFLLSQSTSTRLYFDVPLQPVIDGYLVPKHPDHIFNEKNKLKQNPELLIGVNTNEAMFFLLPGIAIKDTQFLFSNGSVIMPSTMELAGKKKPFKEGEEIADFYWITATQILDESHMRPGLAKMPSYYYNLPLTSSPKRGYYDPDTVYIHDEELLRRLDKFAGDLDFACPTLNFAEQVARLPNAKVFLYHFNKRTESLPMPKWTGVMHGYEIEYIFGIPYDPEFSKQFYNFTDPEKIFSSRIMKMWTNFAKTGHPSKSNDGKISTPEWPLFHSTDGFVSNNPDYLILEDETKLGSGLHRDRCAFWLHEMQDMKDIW

SMILES	Inhibition (%) (Average) (rSmTAChE [1])	Inhibition (%) Replicate A (rSmTAChE [1]) [%]	Inhibition (%) Replicate B (rSmTAChE [1]) [%]	Data Mode (curve class), rSmTAChE (rSmTAChE [2])	IC50 (rSmTAChE [2]; [4]) [µM]	Data Mode (curve class), rHsAChE [3]	IC50 [3, 5] [µM]	also measured
C[C@@H]1C[C@H]2[C@@H]3CCC4=CC(=O)C=C[C@]4(C)[C@@]3(Cl)[C@@H](O)C[C@]2(C)[C@@]1(OC(=O)c1ccco1)C(=O)CCl [BRD-K60640630-001-11-0]	71.97	69.48	74.46	decreasing (weakly active)	> 38	inactive	–	–
C/C=C/c1cccc(-c2nc(C(=O)NCc3ccc(OC)cc3)cc3c2[C@@H](CCO)N([S@+]([O-])C(C)(C)C)C3)c1 [BRD-K73104592-001-03-5]	64.19	65.92	62.45	–	–	–	–	rSmTAChE Data Mode (rSmTAChE [2]): inactive; rHsAChE Data Mode [3]: inactive
O=C(O)CNC(=O)c1c(O)c2ccccc2n(Cc2ccccc2)c1=O [IOX2, reference compound]	–	61.67	70.82	decreasing	16.7	decreasing	–	rSmTAChE HTS Inhibition (Ave, %) (rSmTAChE [1]; 5 µM): 66.25%; IC50 (rSmTAChE [2]; read-out: IC50 (µM) rSmTAChE): 16.7 µM; SI (Sm/Hs) [3]: 2.16; IC50 ([3]; read-out: IC50 (µM) rHsAChE): 7.75 µM
COc1cccc(C#Cc2ccc([C@@H]3[C@@H](C#N)N(C(=O)c4ccccn4)[C@@H]3CO)cc2)c1 [BRD-K66084396-004-02-2]	72.85	73.10	72.60	–	–	–	–	rSmTAChE Data Mode (rSmTAChE [2]): inactive; rHsAChE Data Mode [3]: inactive
C[C@H](NC(=O)C(C)(C)Oc1ccc(C(F)(F)F)cn1)[C@@H](Cc1ccc(Cl)cc1)c1cccc(C#N)c1 [BRD-K35169477-001-01-9]	62.68	60.97	64.40	inactive	–	decreasing (weakly active)	> 13.5	–
O=C(Nc1ccc(Cl)cc1)Nc1ccc(Cl)c(Cl)c1 [BRD-K25029121-001-05-8]	85.20	84.59	85.82	inactive	–	decreasing (weakly active)	> 38	–
COc1ccc(NC(=O)Nc2ccc3c(c2)[C@H]2C[C@@H](CC(=O)NCC(F)(F)F)O[C@@H](CO)[C@H]2O3)cc1 [BRD-K54729370-001-01-4]	90.84	91.00	90.69	–	–	–	–	rSmTAChE Data Mode (rSmTAChE [2]): inactive; rHsAChE Data Mode [3]: inactive
O=C(C[C@H]1C[C@H]2c3cc(NC(=O)NC4CCCC4)ccc3O[C@H]2[C@@H](CO)O1)NCc1ccccc1F [BRD-K64460391-001-01-9]	88.85	89.69	88.02	–	–	–	–	rSmTAChE Data Mode (rSmTAChE [2]): decreasing (weakly active); rHsAChE Data Mode [3]: inactive
COCCOc1ccc2c(c1)ncn2-c1ccc2cccc(N3CCC(N)CC3)c2n1 [BRD-K43621685-001-03-3]	79.32	80.31	78.32	decreasing (weakly active)	> 38	decreasing	20.7	–
COC(=O)N[C@H](C(=O)N1CC2(CC2)C[C@H]1c1ncc(-c2ccc3c(c2)C(F)(F)c2cc(-c4ccc5nc([C@@H]6[C@H]7CC[C@H](C7)N6C(=O)[C@@H](NC(=O)OC)C(C)C)[nH]c5c4)ccc2-3)[nH]1)C(C)C [BRD-K05446112-001-01-8]	66.27	67.15	65.39	decreasing (weakly active)	> 38	inactive	–	–
CCCCC/C=C\C/C=C\C/C=C\C/C=C\CCCC(=O)Nc1ccc(O)cc1 [BRD-K55462201-001-07-3]	74.15	71.40	76.90	inactive	–	decreasing	22.4	–
C[C@H](NC(=O)C[C@H]1C[C@H]2c3cc(NC(=O)Nc4ccc(C(F)(F)F)cc4)ccc3O[C@H]2[C@H](CO)O1)c1ccccc1 [BRD-K17686770-001-01-8]	68.45	70.27	66.63	–	–	–	–	rSmTAChE Data Mode (rSmTAChE [2]): decreasing (weakly active); rHsAChE Data Mode [3]: inactive
N.N.[Cl][Pt][Cl] [Cisplatin, reference compound]	89.23	89.47	88.99	decreasing	–	decreasing (weakly active)	–	HTS/rSmTAChE Inhibition (Ave, %) (rSmTAChE [1]; 20 µM): 89.23%; SI (Hs/Sm) (rSmTAChE [2]): 9.97; fold greater potency/selectivity for SmTAChE vs. HsAChE (Selectivity Index) (rSmTAChE [2]): about 10 fold; IC50 (rSmTAChE [2]; read-out: IC50 (µM) rSmTAChE): 3.81 µM
CC#C[C@@H](CC(=O)O)c1ccc(OCc2cccc(-c3ccc(C(F)(F)F)cc3)c2)cc1 [BRD-K43802723-340-01-9]	79.76	80.42	79.10	decreasing	13.4	decreasing	15.4	–
Cc1nc2sccn2c(=O)c1CCN1CCC(=C(c2ccc(F)cc2)c2ccc(F)cc2)CC1 [BRD-K40887525-001-23-5]	80.73	82.03	79.42	decreasing (weakly active)	> 19.5	decreasing	10.9	–
N#Cc1ccc(N2NC3=C(CCc4cc(C(=O)O)ccc43)[C@@H]2C2CCCC2)cc1Cl [BRD-K51041191-001-01-4]	66.80	70.13	63.46	decreasing (weakly active)	> 38	decreasing (weakly active)	> 38	–
COc1ccc2cc(-c3cc(-c4cc(Cl)cc(Cl)c4)nn3[C@@H](C)c3ccc(C(=O)NCCC(=O)O)cc3)ccc2c1 [MK-0893, reference compound]	–	–	–	decreasing	–	–	–	inhibition at 20 µM (rSmTAChE [1]; read-out: HTS/rSmTAChE Inhibition (Ave, %)): 88.7%; IC50 (µM) rHsAChE ([3]; Table 1, Inactive = inactive at the maximum tested concentration (40 µM)): Inactive *; inhibition of rHsAChE, result in words ([3]; dose–response, up to 40 µM): no inhibition detected
Cc1cc(C#N)cc(C)c1Oc1nc(Nc2ccc(C#N)cc2)nc(N)c1Br [BRD-K74717603-001-02-2]	74.49	77.10	71.88	decreasing (weakly active)	> 38	inactive	–	–
O=C(C[C@H]1C[C@H]2c3cc(NC(=O)Nc4ccc(C(F)(F)F)cc4)ccc3O[C@H]2[C@@H](CO)O1)NC1CCCCC1 [BRD-K18925241-001-01-0]	70.28	62.39	78.17	–	–	–	–	rSmTAChE Data Mode (rSmTAChE [2]): decreasing (weakly active); rHsAChE Data Mode [3]: inactive
C=CCNc1nc(NCC=C)nc(N2CCN(C(c3ccc(F)cc3)c3ccc(F)cc3)CC2)n1 [BRD-K82677201-001-01-6]	71.59	72.90	70.28	decreasing (weakly active)	> 38	decreasing (weakly active)	> 38	–
CCCCCCCCCCCCCCCC[N+](C)(C)C [BRD-K47079459-004-04-6]	64.20	65.92	62.47	decreasing	17	decreasing	10.3	–
